The record followed here is patent US20240360116A1, “BICYCLIC DERIVATIVES” (ELANCO TIERGESUNDHEIT AG, priority 2020, published 2024).

In the assay the target is D. immitis Slo-1 (Dirofilaria immitis, UniProt I0DFK5). The experiment in a line: In Vitro Assay 2: D. immitis Slo-1 recombinant CHO cell line, membrane potential. It is filed as cell-based. To be noted: EC50, CHO cells expressing D. immitis Slo-1, voltage sensitive dye, FLIPR Tetra, 70 mM KCl.
Chain of D. immitis Slo-1 (I0DFK5 1-1119): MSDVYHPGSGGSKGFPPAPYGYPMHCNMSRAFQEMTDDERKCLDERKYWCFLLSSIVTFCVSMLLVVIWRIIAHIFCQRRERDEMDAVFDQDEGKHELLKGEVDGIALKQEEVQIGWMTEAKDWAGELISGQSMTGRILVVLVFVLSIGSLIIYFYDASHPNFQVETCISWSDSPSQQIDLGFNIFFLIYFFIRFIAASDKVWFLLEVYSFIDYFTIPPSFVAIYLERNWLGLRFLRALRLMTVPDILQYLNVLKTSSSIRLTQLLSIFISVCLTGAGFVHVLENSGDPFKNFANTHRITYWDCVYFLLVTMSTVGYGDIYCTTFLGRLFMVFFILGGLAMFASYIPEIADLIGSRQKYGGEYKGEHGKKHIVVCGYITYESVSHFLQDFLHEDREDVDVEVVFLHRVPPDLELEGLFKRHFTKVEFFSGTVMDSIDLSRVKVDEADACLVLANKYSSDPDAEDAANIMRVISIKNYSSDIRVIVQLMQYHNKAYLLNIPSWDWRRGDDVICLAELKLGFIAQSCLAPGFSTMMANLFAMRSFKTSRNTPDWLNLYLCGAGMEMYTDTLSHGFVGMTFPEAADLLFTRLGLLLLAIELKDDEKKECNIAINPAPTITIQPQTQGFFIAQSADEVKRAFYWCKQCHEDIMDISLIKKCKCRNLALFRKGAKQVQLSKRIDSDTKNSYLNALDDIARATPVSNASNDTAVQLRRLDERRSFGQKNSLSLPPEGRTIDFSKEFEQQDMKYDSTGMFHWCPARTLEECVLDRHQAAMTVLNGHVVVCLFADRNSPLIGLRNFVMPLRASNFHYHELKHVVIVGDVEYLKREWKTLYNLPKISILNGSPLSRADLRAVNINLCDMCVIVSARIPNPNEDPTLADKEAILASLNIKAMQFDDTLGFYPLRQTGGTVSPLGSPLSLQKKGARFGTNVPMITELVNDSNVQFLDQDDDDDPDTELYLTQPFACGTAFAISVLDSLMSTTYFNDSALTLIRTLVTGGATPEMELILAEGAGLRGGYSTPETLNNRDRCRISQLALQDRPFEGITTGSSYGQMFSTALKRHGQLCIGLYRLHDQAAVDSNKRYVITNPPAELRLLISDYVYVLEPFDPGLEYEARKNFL

With `O=C(NN1C(=O)COc2ccccc21)c1cnc2c(-c3cc(F)cc(F)c3F)cccc2c1N1CCOCC1` [Example 5.109, 4-morpholino-N-(3-oxo-2,3-dihydro-4H-benzo[b][1,4]oxazin-4-yl)-8-(2,3,5-trifluorophenyl)quinoline-3-carboxamide], the EC50 (in general, the midpoint of the concentration-response curve) fell in the range of 100 to 1000 nM. In the case of `O=C(NN1CCOc2ccccc21)c1cnc2c(-c3cc(F)cc(F)c3F)c(F)ccc2c1N1CC(F)C1` [Example 5.78, N-(2,3-dihydro-1,4-benzoxazin-4-yl)-7-fluoro-4-(3-fluoroazetidin-1-yl)-8-(2,3,5-trifluorophenyl)quinoline-3-carboxamide], the EC50 is less than 100 nM.

`O=C(NN1CCOc2ccccc21)c1cnc2c(-c3cc(F)cc(S(F)(F)(F)(F)F)c3)c(F)ccc2c1C1CCOC1` (centres unmarked) [Example 5.102, N-(2,3-dihydro-4H-benzo[b][1,4]oxazin-4-yl)-7-fluoro-8-(3-fluoro-5-(pentafluoro-sulfanyl)phenyl)-4-(tetrahydrofuran-3-yl)quinoline-3-carboxamide]: the EC50 is less than 100 nM.

For the compound `O=C(NN1CCOc2ccccc21)c1cnc2c(-c3cc(F)cc(F)c3F)c(F)ccc2c1C1CC(F)(F)C1` [Example 5.95, 4-(3,3-difluorocyclobutyl)-N-(2,3-dihydro-4H-benzo[b][1,4]oxazin-4-yl)-7-fluoro-8-(2,3,5-trifluorophenyl)quinoline-3-carboxamide], the EC50 is less than 100 nM. For the compound `O=C(NN1CCOc2ccccc21)c1cnc2c(-c3cc(C(F)(F)F)cc(F)c3F)c(F)ccc2c1N1CCOCC1` [Example 5.94, 8-(2,3-difluoro-5-(trifluoromethyl)phenyl)-N-(2,3-dihydro-4H-benzo[b][1,4]oxazin-4-yl)-7-fluoro-4-morpholinoquinoline-3-carboxamide], the EC50 was less than 100 nM. For `O=C(NN1CCOc2ccccc21)c1cnc2c(-c3cc(C(F)(F)F)cc(F)c3F)c(F)ccc2c1N1CC(F)C1` [Example 5.96, 8-(2,3-difluoro-5-(trifluoromethyl)phenyl)-N-(2,3-dihydro-4H-benzo[b][1,4]oxazin-4-yl)-7-fluoro-4-(3-fluoroazetidin-1-yl)quinoline-3-carboxamide], the EC50 fell in the range of 100 to 1000 nM. In the case of `C=C(C)c1c(C(=O)NN2CCOc3ccc(F)cc32)cnc2c(-c3cc(F)cc(F)c3F)c(F)ccc12` [Example 5.99, 7-fluoro-N-(6-fluoro-2,3-dihydro-4H-benzo[b][1,4]oxazin-4-yl)-4-(prop-1-en-2-yl)-8-(2,3,5-trifluorophenyl)quinoline-3-carboxamide], the EC50 was 100 to 1000 nM. For `COC1CN(c2c(C(=O)NN3CCOc4ccccc43)cnc3c(-c4cc(F)cc(F)c4F)c(F)ccc23)C1` [Example 5.84, N-(2,3-dihydro-1,4-benzoxazin-4-yl)-7-fluoro-4-(3-methoxyazetidin-1-yl)-8-(2,3,5-trifluorophenyl)quinoline-3-carboxamide], the EC50 is 100 to 1000 nM. In the case of `O=C(NN1CCOc2ccc(F)cc21)c1cnc2c(-c3cc(F)cc(F)c3F)c(F)ccc2c1N1CC(F)C1` [Example 5.98, 7-fluoro-N-(6-fluoro-2,3-dihydro-4H-benzo[b][1,4]oxazin-4-yl)-4-(3-fluoroazetidin-1-yl)-8-(2,3,5-trifluorophenyl)quinoline-3-carboxamide], the EC50 lay in the range of 100 to 1000 nM. As to `O=C(NN1CCOc2ccccc21)c1cnc2c(-c3cc(F)cc(F)c3F)c(F)ccc2c1C1CS(=O)(=O)C1` [Example 5.86, N-(2,3-dihydro-1,4-benzoxazin-4-yl)-4-(1,1-dioxothietan-3-yl)-7-fluoro-8-(2,3,5-trifluorophenyl)quinoline-3-carboxamide], the EC50 is 100 to 1000 nM.

As to `N#Cc1c(F)cc(C(F)(F)F)cc1-c1cccc2c(N3CCOCC3)c(C(=O)NN3CCOc4ccccc43)cnc12` [Example 5.81, 8-[2-cyano-3-fluoro-5-(trifluoromethyl)phenyl]-N-(2,3-dihydro-1,4-benzoxazin-4-yl)-4-morpholino-quinoline-3-carboxamide], the EC50 was 100 to 1000 nM.
